# Values quoted from earlier work in patent US9561187B1, “Sustained release metoprolol formulations” (CMAX Technologies, Inc., priority 2014, dated 2017).
# Structures can show the parent of a compound that is named as a salt. Where two headings read alike, the source gives them in different places.
# Columns and labels:
# [1] = immediate-release tartrate vs extended-release succinate
structure (smiles),measurement,setting,value
"COCCc1ccc(OCC(O)CNC(C)C)cc1 (racemic) [Metoprolol succinate, (±)1(isopropylamino)-3-[p-(2-methoxyethyl)phenoxy]-2-propanol succinate (2:1) (salt)]",Solubility,in dichloromethane and 2-propanol,slightly soluble
same,Solubility,in ethanol,sparingly soluble
same,Solubility,"in ethyl-acetate, acetone, diethylether and heptane",practically insoluble
same,Solubility,in methanol,soluble
same,Solubility,in water,freely soluble
"COCCc1ccc(OCC(O)CNC(C)C)cc1 (racemic) [Metoprolol tartrate, (±)-1-(Isopropylamino)-3-[p-(2-methoxyethyl)phenoxy]-2-propanol L-(+)-tartrate (2:1) salt]",Solubility,in acetone,slightly soluble
same,Solubility,in ether,insoluble
same,Solubility,"in methylene chloride, in chloroform, and in alcohol",freely soluble
same,Solubility,in water,very soluble
same,More bioavailable than metoprolol succinate (more drug is absorbed),[1],at least 30%
